Values quoted from earlier work, collected in patent publication US20220151997A1, “USE OF EPALRESTAT IN PREPARATION OF PANCREATIC CANCER DRUGS AND METHOD FOR VERIFYING INHIBITION EFFECT OF EPALRESTAT ON SECRETION OF EXOSOMES FROM PANCREATIC CANCER CELLS” (Affiliated Hospital of Nantong University, priority 2019, published 2022).

Tested on: prostate cancer cells
Details: by inhibiting the Ras signaling pathway and hnRNP H1 expression

## CCCC[C@@H](C)/C=C(C)/C=C(\C)C(=O)NC1=C[C@@](O)(/C=C/C=C/C=C/C(=O)NC2=C(O)CCC2=O)[C@@H]2O[C@@H]2C1=O [Manumycin A]
  production and secretion of the exosomes: inhibits
